Assay results from patent US20130060013A1, “Compounds useful for treating neurodegenerative disorders” (SATORI PHARMACEUTICALS, INC., priority 2011, published 2013).

What was measured:
Type in all cases: cell-based
Conditions in all cases: Homo sapiens, compound 5 hours at 37° C., 1% DMSO, percent vehicle fit to 4 parameter curve
[1] = system: Aβ-42; experiment: Aβ-42 level in conditioned media of 2B7 cells (MSD 3-PLEX ELISA)
Summary of the method: (§1)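 2B7 cells at confluence were exposed to compound dilutions in medium (1% DMSO final) for 5 h at 37 °C. Conditioned medium, diluted 1:1 in blocking buffer, was assayed by MSD 3-plex electrochemiluminescence ELISA, and levels were read from a seven-point standard curve. IC50 came from a 4-parameter fit of percent-of-vehicle values.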

[2] = system: Aβ-38; experiment: Aβ-38 level in conditioned media of 2B7 cells (MSD 3-PLEX ELISA)
Summary of the method: as §1

[3] = system: Aβ-40; experiment: Aβ-40 level in conditioned media of 2B7 cells (MSD 3-PLEX ELISA)
Experimental: Assays were conducted to determine the ability of a Compound of Formula I to modulate […], and Aβ-38.
Human (6E10) Ab 3-PLEX elisa kits were purchased from Meso Scale Discovery Labs, 9328 Gaither Road, Gaithersburg, Md. 20877 (Catalog Number K15148E-3). Plates with capture antibodies were blocked for 1-2 hours at room temperature with 150 μL of the manufactures blocking reagent.
Cultured 2B7 cells in 96 well plate with 250 uL of media per well until confluent;
Prepared serial dilutions of compounds in DMSO at 100× the final desired concentration;
Washed wells with 2B7 cells 1× with 250 uL of media;
Diluted DMSO stocks 1:100 into media:
Added 250 μL of media containing compounds (1% DMSO) to wells with 2B7 cells for 5 hours at 37° C.
Diluted conditioned media: 1 part media with 1% DMSO and 1 part blocking buffer;
150 μL of the 250 μL of conditioned media were used.
Standard Curve Sample Prep:
Prepared per manufacturer's protocol (see above)
Seven point standard curve samples were prepared that contained Aβ-42, Aβ-40, and Aβ-38. The highest concentration of Aβ-42 and Aβ-38 was 3,000 pg/mL and the highest concentration of Aβ-40 was 10,000 pg/mL. Subsequent serial dilutions were 1:3 and the final composition of each sample was 1 part blocking buffer and 1 part cell medium containing 1% DMSO.
Overnight Sample Incubation:
Blocked plates are washed 5× with MSD wash buffer with a plate washer
25 uL of detection antibody and blocker G reagent in MSD blocking solution is added
25 uL of samples (1 part conditioned media containing 1% DMSO and 1 part MSD blocking buffer) are then added.
plates are incubated overnight at 4 degrees C. or 2 hours at room temp
Wash wells 5× with MSD wash buffer
Added 150 μL 2×MSD read buffer
A-Beta peptide levels for each peptide are calculated from the standard curve using the MSD software provided with the MSD 2400 Imager. Percent vehicle values for each compound dosage were then calculated and fit to a 4 parameter curve generating IC50 values.

| Structure (SMILES) | IC50 [1] [µM] | IC50 [2] [µM] | IC50 [3] [µM] |
| --- | --- | --- | --- |
| CCO[C@@H]([C@H]1C[C@@H](C)[C@H]2[C@H](O1)[C@H](O)[C@@]1(C)[C@@H]3CC[C@H]4C(C)(C)[C@@H](OC(=O)CN5CCOCC5)CCC45C[C@@]35CC[C@]21C)C(C)(C)O (stereo partly drawn) | < 1 | < 1 | 1 to 10 |
| CCO[C@@H]([C@H]1C[C@@H](C)[C@H]2[C@H](O1)[C@H](OCC)[C@@]1(C)[C@@H]3CC[C@H]4C(C)(C)[C@@H](O)CCC45C[C@@]35CC[C@]21C)C(C)(C)O (stereo partly drawn) | 1 to 10 | 1 to 10 | 1 to 10 |
| CO[C@@H](C1C[C@@H](C)[C@H]2C(O1)[C@H](O)[C@@]1(C)C3CC[C@H]4C(C)(C)[C@@H](O[C@H]5CNCCO5)CC[C@@]45CC35CC[C@]21C)C(C)(C)O (stereo partly drawn) | < 1 | < 1 | 1 to 10 |
| CO[C@@H]([C@H]1C[C@@H](C)[C@H]2[C@H](O1)[C@H](O)[C@@]1(C)[C@@H]3CC[C@H]4C(C)(C)[C@@H](OC5CN(C6CCN(C)C6=O)CCO5)CCC45C[C@@]35CC[C@]21C)C(C)(C)O (stereo partly drawn) | < 1 | < 1 | > 10 |
| CCO[C@@H]([C@H]1C[C@@H](C)[C@H]2[C@H](O1)[C@H](O)[C@@]1(C)[C@@H]3CC[C@H]4C(C)(C)[C@@H](O[C@H]5CN(CC(=O)N6CCC6)CCO5)CCC45C[C@@]35CC[C@]21C)C(C)(C)O (stereo partly drawn) | < 1 | < 1 | 1 to 10 |
| CCO[C@@H]([C@H]1C[C@@H](C)[C@H]2[C@H](O1)[C@H](O)[C@@]1(C)[C@@H]3CC[C@H]4C(C)(C)[C@@H](O[C@H]5CN([C@@H](C)C(=O)N6CCC6)CCO5)CCC45C[C@@]35CC[C@]21C)C(C)(C)O (stereo partly drawn) | < 1 | 1 to 10 | > 10 |
| CCO[C@@H]([C@H]1C[C@@H](C)[C@H]2[C@H](O1)[C@H](O)[C@@]1(C)[C@@H]3CC[C@H]4C(C)(C)[C@@H](O[C@H]5CN(CC(=O)N(C)C)CCO5)CCC45C[C@@]35CC[C@]21C)C(C)(C)O (stereo partly drawn) | < 1 | < 1 | 1 to 10 |
| CCO[C@@H]([C@H]1C[C@@H](C)[C@H]2[C@H](O1)[C@H](O)[C@@]1(C)[C@@H]3CC[C@H]4C(C)(C)[C@@H](OC5CN(CC(=O)N6CCOCC6)CCO5)CCC45C[C@@]35CC[C@]21C)C(C)(C)O (stereo partly drawn) | < 1 | < 1 | > 10 |
| CO[C@@H]([C@H]1C[C@@H](C)[C@H]2[C@H](O1)[C@H](O)[C@@]1(C)[C@@H]3CC[C@H]4C(C)(C)[C@@H](O[C@H]5CN(CCN6CCOCC6)CCO5)CCC45C[C@@]35CC[C@]21C)C(C)(C)O (stereo partly drawn) | < 1 | < 1 | 1 to 10 |
| CO[C@@H]([C@H]1C[C@@H](C)[C@H]2[C@H](O1)[C@H](O)[C@@]1(C)[C@@H]3CC[C@H]4C(C)(C)[C@@H](O[C@H]5CN(CCN(C)C)CCO5)CCC45C[C@@]35CC[C@]21C)C(C)(C)O (stereo partly drawn) | < 1 | 1 to 10 | > 10 |
| CCO[C@@H]([C@H]1C[C@@H](C)[C@H]2[C@H](O1)[C@H](O)[C@@]1(C)[C@@H]3CC[C@H]4C(C)(C)[C@@H](O[C@H]5CN([C@@H](C)CN6CCC6)CCO5)CCC45C[C@@]35CC[C@]21C)C(C)(C)O (stereo partly drawn) | < 1 | < 1 | 1 to 10 |
| CCO[C@@H]([C@H]1C[C@@H](C)[C@H]2[C@H](O1)[C@H](O)[C@@]1(C)[C@@H]3CC[C@H]4C(C)(C)[C@@H](O[C@H]5CN([C@@H](C)CO)CCO5)CCC45C[C@@]35CC[C@]21C)C(C)(C)O (stereo partly drawn) | < 1 | < 1 | 1 to 10 |
| CCO[C@@H]([C@H]1C[C@@H](C)[C@H]2[C@H](O1)[C@H](O)[C@@]1(C)[C@@H]3CC[C@H]4C(C)(C)[C@@H](O[C@H]5CN([C@H](C)CO)CCO5)CC[C@@]45C[C@@]35CC[C@]21C)C(C)(C)O | < 1 | 1 to 10 | 1 to 10 |
| CCO[C@@H]([C@H]1C[C@@H](C)[C@H]2[C@H](O1)[C@H](O)[C@@]1(C)[C@@H]3CC[C@H]4C(C)(C)[C@@H](O[C@H]5CN(CC(C)(C)O)CCO5)CCC45C[C@@]35CC[C@]21C)C(C)(C)O (stereo partly drawn) | < 1 | < 1 | 1 to 10 |
| CCO[C@@H]([C@H]1C[C@@H](C)[C@H]2[C@H](O1)[C@H](O)[C@@]1(C)[C@@H]3CC[C@H]4C(C)(C)[C@@H](O[C@H]5CN(C(C)(C)CO)CCO5)CCC45C[C@@]35CC[C@]21C)C(C)(C)O (stereo partly drawn) | < 1 | < 1 | 1 to 10 |
| CCO[C@@H](C1C[C@@H](C)[C@H]2C(O1)[C@H](O)[C@@]1(C)C3CC[C@H]4C(C)(C)[C@@H](O[C@H]5CN(C(=O)CC6CNC6)CCO5)CCC45C[C@@]35CC[C@]21C)C(C)(C)O (stereo partly drawn) | < 1 | < 1 | 1 to 10 |
| CCO[C@@H](C1C[C@@H](C)[C@H]2C(O1)[C@H](O)[C@@]1(C)C3CC[C@H]4C(C)(C)[C@@H](O[C@H]5CN(C(=O)CC6CN(C)C6)CCO5)CCC45C[C@@]35CC[C@]21C)C(C)(C)O (stereo partly drawn) | < 1 | < 1 | 1 to 10 |
| CCO[C@@H]([C@H]1C[C@@H](C)[C@H]2[C@H](O1)[C@H](O)[C@]1(C)[C@@H]3CC[C@H]4C(C)(C)[C@@H](O[C@H]5CN(C(=O)C6CNC6)CCO5)CC[C@@]45C[C@@]35CC[C@@]21C)C(C)(C)O | < 1 | < 1 | 1 to 10 |
| CCO[C@@H]([C@H]1C[C@@H](C)[C@H]2[C@H](O1)[C@H](O)[C@@]1(C)[C@@H]3CC[C@H]4C(C)(C)[C@@H](O[C@H]5CN(CCF)CCO5)CCC45C[C@@]35CC[C@]21C)C(C)(C)O (stereo partly drawn) | < 1 | < 1 | 1 to 10 |
| CCO[C@@H]([C@H]1C[C@@H](C)[C@H]2[C@H](O1)[C@H](O)[C@@]1(C)[C@@H]3CC[C@H]4C(C)(C)[C@@H](O[C@H]5CN(C(C)(C)COC)CCO5)CCC45C[C@@]35CC[C@]21C)C(C)(C)O (stereo partly drawn) | < 1 | < 1 | > 10 |
| CCO[C@@H]([C@H]1C[C@@H](C)[C@H]2[C@H](O1)[C@H](O)[C@@]1(C)[C@@H]3CC[C@H]4C(C)(C)[C@@H](O[C@H]5CN(CCN6CCOC6=O)CCO5)CCC45C[C@@]35CC[C@]21C)C(C)(C)O (stereo partly drawn) | < 1 | < 1 | 1 to 10 |
| CCO[C@@H]([C@H]1C[C@@H](C)[C@H]2[C@H](O1)[C@H](O)[C@@]1(C)[C@@H]3CC[C@H]4C(C)(C)[C@@H](O[C@H]5CN([C@H](C)CF)CCO5)CCC45C[C@@]35CC[C@]21C)C(C)(C)O (stereo partly drawn) | 1 to 10 | 1 to 10 | > 10 |
| CCO[C@@H]([C@H]1C[C@@H](C)[C@H]2[C@H](O1)[C@H](O)[C@@]1(C)[C@@H]3CC[C@H]4C(C)(C)[C@@H](O[C@H]5CN([C@@H](C)CF)CCO5)CC[C@@]45C[C@@]35CC[C@]21C)C(C)(C)O | 1 to 10 | 1 to 10 | > 10 |
| CCO[C@@H]([C@H]1C[C@@H](C)[C@H]2[C@H](O1)[C@H](O)[C@@]1(C)[C@@H]3CC[C@H]4C(C)(C)[C@@H](O[C@H]5CN([C@H](C)COC)CCO5)CCC45C[C@@]35CC[C@]21C)C(C)(C)O (stereo partly drawn) | < 1 | 1 to 10 | > 10 |
| CCO[C@@H]([C@H]1C[C@@H](C)[C@H]2[C@H](O1)[C@H](O)[C@@]1(C)[C@@H]3CC[C@H]4C(C)(C)[C@@H](O[C@H]5CN(Cc6ccn(C)n6)CCO5)CCC45C[C@@]35CC[C@]21C)C(C)(C)O (stereo partly drawn) | < 1 | 1 to 10 | > 10 |
| CCO[C@@H]([C@H]1C[C@@H](C)[C@H]2[C@H](O1)[C@H](O)[C@@]1(C)[C@@H]3CC[C@H]4C(C)(C)[C@@H](O[C@H]5CN([C@@H](C)COC)CCO5)CC[C@@]45C[C@@]35CC[C@]21C)C(C)(C)O | < 1 | 1 to 10 | > 10 |
| CCO[C@@H]([C@H]1C[C@@H](C)[C@H]2[C@H](O1)[C@H](O)[C@@]1(C)[C@@H]3CC[C@H]4C(C)(C)[C@@H](O[C@H]5CN(Cc6ncc[nH]6)CCO5)CCC45C[C@@]35CC[C@]21C)C(C)(C)O (stereo partly drawn) | < 1 | < 1 | 1 to 10 |
